Test results taken from patent US7628987B2, “Vectors derived from antibodies for transferring substances into cells” (Institut Pasteur, priority 1997, dated 2009).

Tested on: CCL39 cells
Assay: Polyfection in the presence of glycerol, CCL39 cells
Assay type: cell-based, hamster
Conditions: glycerol 0.23 M, charge ratio 2.2, 5 h30
Protocol: Further, by way of comparison, transfection was carried out in the presence of polyethylene […] (PEI), 25 kDa (Aldrich, St Louis, Mo.) in a charge ratio of 2.2 in the presence of glycerol and 5 in the absence of glycerol.

Structure (SMILES): OCC(O)CO [glycerol]
- increase in polyfection (luciferase activity) induced by glycerol: 38 factor
